Measurements reported in PubChem BioAssay AID179 (DTP/NCI, 2004).
Values joined by “and” are separate entries in the source; they are usually repeats but may differ in a detail not shown here. Equal values may be shown once. Active and inactive are the calls of the source.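 How the source made its calls: active means compounds giving half or more protection of infected cells from virus-caused growth loss, again on retest; inactive means the rest.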

Test system: CEM cells HIV-1 protection, formazan growth assay
Test: NCI AIDS Antiviral Assay
Conditions: for IC50: measured here: growth of uninfected CEM cells
Summary of the method: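 Soluble formazan readout of cell growth; CEM cells ± HIV-1; 5 drug concs. ≥50% protection → retest; ≥50% again = moderately active; reproducible 100% = confirmed active.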

With CCOC(=O)/C(C#N)=C/c1ccccc1[N+](=O)[O-] the EC50 was > 275 µM and the IC50 was 46.8 µM.
For O=C1C2=C(c3ccccc31)C(c1ccc(Cl)cc1)N1C(=O)CCSC1=N2 (configuration not stated), the EC50 was > 49 µM and the IC50 was > 49 µM.
CN1CN(c2ccccc2)C2(CCN(C(=O)OC(C)(C)C)CC2)C1=O was tested, and the EC50 was > 100 µM and the IC50 was > 100 µM.
O=c1cc(-c2cccs2)ss1 gave an EC50 of 77.6 µM and an IC50 of 110 µM.
With CC1C2CC(CC2N)C1(C)C (configuration not stated) the EC50 was > 162 µM and the IC50 was > 162 µM.
CCn1cc(C(=O)O)c(=O)c2cc(F)c(N3CCNCC3)nc21 was tested, and the outcome was “inactive”.
In the case of CCOC(=O)c1cnn2c1ncc1c(=O)n(NC(N)=O)ccc12, the EC50 is reported as > 200 µM and the IC50 is reported as > 200 µM.
CCC12CCCN(Cc3ccccc3)C1c1c([nH]c3ccccc13)C(CO)C2 (configuration not stated) was tested, and the EC50 was > 26.3 µM and the IC50 was > 26.3 µM.
In the case of O=c1[nH]nc(Cc2ccc(Cl)cc2)n1Nc1ccccc1, the EC50 is reported as > 200 µM and the IC50 is reported as > 200 µM.
In the case of CC1OC2(CC(OCc3ccccc3)C1OCc1ccccc1)OCCO2 (configuration not stated), the EC50 is reported as > 200 µM and the IC50 is reported as 29.5 µM.
CCCCCCc1cc2cc(-c3csc(CC#N)n3)c(=O)oc2cc1O was tested, and the EC50 was > 200 µM and the IC50 was > 200 µM.
In the case of CCCOC(=O)NC(C)C(=O)NC(CCC(=O)NC(CCCC(N)C(=O)O)C(=O)NC(C)C(=O)O)C(=O)O (configuration not stated), the EC50 is reported as > 50.1 µM and the IC50 is reported as > 50.1 µM.
With CCC1CN(C(=O)c2ccccc2)C(Cc2c[nH]c3ccccc23)C(=O)C1CC(=O)OC (configuration not stated) the EC50 was > 200 µM and the IC50 was 79.4 µM.
Brc1ccc2c(-c3csc(-c4c[nH]c5ccccc45)n3)c[nH]c2c1 was tested, and the EC50 was > 200 µM and the IC50 was 10.7 µM.
In the case of CN1C(=O)N(C)C2(O)c3ccccc3C(=O)C12O (configuration not stated), the EC50 is reported as > 1000 µM and the IC50 is reported as > 1000 µM.
Molecule Nc1c(S(=O)(=O)O)cc(S(=O)(=O)O)c2ccc(N=Nc3ccc(CCc4ccc(N=Nc5ccc6c(S(=O)(=O)O)cc(S(=O)(=O)O)c(N)c6c5O)cc4S(=O)(=O)O)c(S(=O)(=O)O)c3)c(O)c12 has an EC50 of 8.13 µM and an IC50 of 138 µM.
In the case of O=S(=O)(c1ccccc1)N1CC2(CN(S(=O)(=O)c3ccccc3)c3ccccc31)CN(S(=O)(=O)c1ccccc1)c1ccccc1N(S(=O)(=O)c1ccccc1)C2, the EC50 is reported as > 200 µM and the IC50 is reported as > 200 µM.
O=C1C(N=Nc2ccc([N+](=O)[O-])cc2)Sc2nc3ccccc3n21 (configuration not stated) was tested, and the EC50 was > 200 µM and the IC50 was 178 µM.
In the case of N#CCCN(CCC#N)c1ccc(C(Sc2ccccc2)C(NC(=O)c2cc([N+](=O)[O-])ccc2Cl)C(=O)Sc2ccccc2)cc1 (configuration not stated), the EC50 is reported as > 10.7 µM and the IC50 is reported as 3.55 µM.
With O=C(Cc1ccccc1)NC(C(=O)c1ccccc1)c1ccccc1 (configuration not stated) the EC50 was > 79.4 µM and the IC50 was > 79.4 µM.
With COC(=O)c1cc(C(=CCCN)c2cc(Cl)c(OC)c(C(=O)OC)c2)cc(Cl)c1OC the EC50 was > 200 µM and the IC50 was 8.71 µM.
NS(=O)(=O)c1ccc(NC2=CC(=O)C(=O)c3ccccc32)cc1 was tested, and the EC50 was > 30.2 µM and the IC50 was > 30.2 µM.
In the case of COc1ccc2nc3cc([N+](=O)[O-])ccc3c(NCCCN(CCO)CCO)c2c1, the EC50 is reported as > 200 µM and the IC50 is reported as 2.51 µM.
With COC(=O)C(=O)OC1(C(C)=O)CC2(c3ccccc3)OC1(c1ccccc1)c1ccccc12 (configuration not stated) the outcome was “inactive”.
With CCOc1ccc(-c2coc3cc(C)c(OCC)c(C)c3c2=O)cc1 the EC50 was > 200 µM and the IC50 was > 200 µM.
In the case of COC1/C=C/OC2(C)Oc3c(C)c(O)c4c(O)c(c(C=NNC(=O)C(CO)(c5ccccc5)c5ccccc5)c(O)c4c3C2=O)NC(=O)/C(C)=C/C=C/C(C)C(O)C(C)C(O)C(C)C(OC(C)=O)C1C (configuration not stated), the EC50 is reported as > 200 µM and the IC50 is reported as 32.4 µM.
With O=C1/C(=C/c2ccc(O)cc2)CCc2ccc([N+](=O)[O-])cc21 the EC50 was > 200 µM and the IC50 was 81.3 µM.
N/N=C(/c1ccccc1)c1cccc([N+](=O)[O-])c1 was tested, and the EC50 was > 200 µM and the IC50 was 166 µM.
With COC(=O)c1ccc2cc(O)c(O)cc2c1 the EC50 was > 200 µM and the IC50 was 22.4 µM.
For O=c1ccc(=O)n(-c2ccccc2)[nH]1, the EC50 was > 955 µM and the IC50 was > 955 µM.
In the case of COc1cc(Cc2cc3c(c(C(=O)O)c2Br)OCO3)cc(OC)c1OC, the EC50 is reported as > 200 µM and the IC50 is reported as 44.7 µM.
For COC(=O)C1C(O)C(C)C(O)C(C)/C=C\C=C(C)C(=O)Nc2c(C)c(OC(C)=O)c3c(c2O)C(=O)C(C)=C2OCOC(=C23)C(C)=CC(C)(O)C(O)C(C)C1O (configuration not stated), the EC50 was > 324 µM and the IC50 was 117 µM and 162 µM.
For Cc1cc(Br)ccc1N=Nc1c(C)nn(-c2ccccc2)c1-c1ccccc1, the outcome was “inactive”.
For O=c1ccc(=O)n(-c2ccc(Cl)cc2)[nH]1, the EC50 was > 162 µM and the IC50 was > 162 µM.
CC(C)=O.O=C([O-])C(F)(F)F.O=C([O-])C(F)(F)F.O=C([O-])C(F)(F)F.O=C([O-])C(F)(F)F.[Rh+2].[Rh+2] was tested, and the EC50 was > 200 µM and the IC50 was > 200 µM.
N#C/C(=C\c1ccc(O)c(O)c1)C(=O)NCCCCCCCCCCNC(=O)/C(C#N)=C/c1ccc(O)c(O)c1 was tested, and the EC50 was > 200 µM and the IC50 was 2.75 µM.
For CN/C=C(/c1ccc(OC)cc1)C(O)c1ccc(OC)c(OC)c1 (configuration not stated), the EC50 was > 759 µM and the IC50 was 282 µM.
In the case of O=c1nc2n(cc1/C=C\Br)C1CC(O)C(CO2)O1 (configuration not stated), the outcome is reported as “inactive”.
With COc1ccc(C2S/C(=C\c3ccc([N+](=O)[O-])cc3)C(=O)N2NC(=O)Cc2ccccc2)cc1 (configuration not stated) the EC50 was > 55 µM and the IC50 was > 55 µM.
In the case of C1CSCCCSCCCSCCCSCCCSCCCSCCCSCCCSC1, the EC50 is reported as > 8.71 µM and the IC50 is reported as > 8.71 µM.
For CC(=O)c1sc(Nc2ccc(S(=O)(=O)Nc3nc(C)cc(C)n3)cc2)nc1C, the EC50 was > 200 µM and the IC50 was 112 µM.
With O=C1c2ccccc2Sc2ccccc2N1CCCCN1CCN(c2ccc(F)cc2)CC1 the EC50 was > 200 µM and the IC50 was > 200 µM.
With CC(C)(C)c1cc(C2NC(=O)NC2=O)cc(C(C)(C)C)c1O (configuration not stated) the EC50 was > 20 µM and the IC50 was > 20 µM.
COCCN(C(=O)c1ccccc1)C1CCC(=O)c2[nH]c3ccccc3c21 (configuration not stated) was tested, and the EC50 was > 200 µM and the IC50 was 3.63 µM.
C[N+](C)([O-])CCC=C1c2ccccc2CCc2ccccc21 was tested, and the EC50 was > 200 µM and the IC50 was 105 µM.
In the case of CCCCN(C)CC(C(C)=O)C(c1ccccc1)c1c(O)c2ccccc2oc1=O (configuration not stated), the EC50 is reported as > 67.6 µM and the IC50 is reported as 60.3 µM.
O=C1C2CCCCC2C(=O)N1n1c(Cc2ccc(Cl)cc2)n[nH]c1=O (configuration not stated) was tested, and the EC50 was > 200 µM and the IC50 was > 200 µM.
COC(=O)/C=C\C(C#N)(C#N)N=Cc1ccsc1 was tested, and the EC50 was > 2 µM and the IC50 was 0.759 µM.
In the case of CNN1C(=O)c2c(C)c(C)c(C#N)c(N)c2C1=O, the EC50 is reported as > 200 µM and the IC50 is reported as > 200 µM.
CC1(C)CC(=O)CC(=Nc2ccc([N+](=O)[O-])cc2)C1 was tested, and the EC50 was > 52.5 µM and the IC50 was > 52.5 µM.
For CC1C(c2ccccc2)=CCON1c1ccccc1 (configuration not stated), the EC50 was > 75.9 µM and the IC50 was > 75.9 µM.
In the case of COC1CC(n2cnc3c(N)ncnc32)OC1CO (configuration not stated), the EC50 is reported as > 200 µM and the IC50 is reported as > 200 µM.
With CC(C)OC1=C(CC2(C)OCCO2)C(=O)C12OCCO2 the EC50 was > 200 µM and the IC50 was > 200 µM.
For COc1cc(C2c3cc4c(cc3OC(N3CCOCC3)C2C)OCO4)ccc1O (configuration not stated), the EC50 was > 200 µM and the IC50 was 5.13 µM.
In the case of O=c1oc2ccccc2c(O)c1Cc1c(O)c2ccccc2oc1=O, the EC50 is reported as > 200 µM and the IC50 is reported as 55 µM and > 200 µM.
COc1cc(C2C(Cl)C(=O)N2NC(=O)c2ccccc2O)cc(OC)c1OC (configuration not stated) was tested, and the EC50 was > 45.7 µM and the IC50 was 3.98 µM.
For O=C(O)c1c2c(c(C(=O)O)c3ccccc13)-c1ccccc1-2, the outcome was “inactive”.
For O=C(Nc1nc2ccsc2s1)c1ccccc1, the EC50 was > 501 µM and the IC50 was > 501 µM.
For N#CCCC1(CCC#N)CCCCCCC(CCC#N)(CCC#N)C(O)C1O (configuration not stated), the EC50 was > 200 µM and the IC50 was > 200 µM.
In the case of COC(=O)c1cc2c(nc1C)-c1ccccc1OS2(=O)=O, the outcome is reported as “inactive”.
With O=C1C=CC(=O)c2c(O)cccc21 the outcome was “inactive”.
CC(C)CC1NC(=O)C(CC(C)C)N(CO)C1=O (configuration not stated) was tested, and the EC50 was > 200 µM and the IC50 was > 200 µM.
